Experimental data taken from the supplement of paper PMC11208160.

Experiment: recombinant UMI read abundance after kanamycin selection (control-corrected) (log10(CPM+1)); higher = more efficient recombination; extreme values may be limits of the assay; sequences stand for … in AGTGCAGAGAAAATCGGCCAGTTTTCTCTGCCTGCAGTCCGCATGCCGTGGGACCCCTTGGGTTCTAACCTGTTGCCTAGATTTATGCAGCGGACTGCCTTTCTCCCAAAGTGATAAACCGG…AGGTTGGTTTCACT; site = the 11-nt donor
Method in brief: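 Values, expressed as log10(CPM+1), derive from recombinant UMI counts converted to CPM, averaged across replicates and scaled by control-derived factors. Plating was with IPTG (0.07 mM) plus kanamycin or unselected, two replicates each. The screen pooled donor and donor-binding-loop pairs for the IS621 bridge recombinase in Escherichia coli.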
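Further: IS621 bridge recombinase in Escherichia coli cells against a fixed T5 target plasmid.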

Row | Sequence | recombinant UMI read abundance (log10)
1 | CGTGGAACATGGACCGGTTTTCCCGGTAATCCGTATTTGTG (site CGTGGAACTCA) | 1.16
2 | CGTGGAACATGGACCGGTTTTCCCGGTAATCCGTATTTGTG (site CGTGGAACTGA) | 0
3 | CGTGGAACATGGACCGGTTTTCCCGGTAATCCGTATTTGTG (site CGTGGAACTTA) | 1.61
4 | CGTGGAACATGGACCGGTTTTCCCGGTAATCCGTATTTGTT (site AGTGGAACTAA) | 0.101
5 | CGTGGAACATGGACCGGTTTTCCCGGTAATCCGTATTTGTT (site CATGGAACTAA) | 0.0194
6 | CGTGGAACATGGACCGGTTTTCCCGGTAATCCGTATTTGTT (site CCTGGAACTAA) | 0.0032
7 | CGTGGAACATGGACCGGTTTTCCCGGTAATCCGTATTTGTT (site CGAGGAACTAA) | 1.63
8 | CGTGGAACATGGACCGGTTTTCCCGGTAATCCGTATTTGTT (site CGCGGAACTAA) | 0.501
9 | CGTGGAACATGGACCGGTTTTCCCGGTAATCCGTATTTGTT (site CGGGGAACTAA) | 0.00685
10 | CGTGGAACATGGACCGGTTTTCCCGGTAATCCGTATTTGTT (site CGTAGAACTAA) | 1.15
11 | CGTGGAACATGGACCGGTTTTCCCGGTAATCCGTATTTGTT (site CGTCGAACTAA) | 0.0185
12 | CGTGGAACATGGACCGGTTTTCCCGGTAATCCGTATTTGTT (site CGTGAAACTAA) | 0
13 | CGTGGAACATGGACCGGTTTTCCCGGTAATCCGTATTTGTT (site CGTGCAACTAA) | 0.00967
14 | CGTGGAACATGGACCGGTTTTCCCGGTAATCCGTATTTGTT (site CGTGGAACTAA) | 1.72
15 | CGTGGAACATGGACCGGTTTTCCCGGTAATCCGTATTTGTT (site CGTGGAACTAC) | 0.303
16 | CGTGGAACATGGACCGGTTTTCCCGGTAATCCGTATTTGTT (site CGTGGAACTAG) | 0.951
17 | CGTGGAACATGGACCGGTTTTCCCGGTAATCCGTATTTGTT (site CGTGGAACTAT) | 0.403
18 | CGTGGAACATGGACCGGTTTTCCCGGTAATCCGTATTTGTT (site CGTGGAACTCA) | 0.251
19 | CGTGGAACATGGACCGGTTTTCCCGGTAATCCGTATTTGTT (site CGTGGAACTGA) | 0.938
20 | CGTGGAACATGGACCGGTTTTCCCGGTAATCCGTATTTGTT (site CGTGGAACTTA) | 0.841
21 | CGTGGAACATGGACCGGTTTTCCCGGTAATCCGTATTTGTT (site CGTGGACCTAA) | 0.071
22 | CGTGGAACATGGACCGGTTTTCCCGGTAATCCGTATTTGTT (site CGTGGAGCTAA) | 0.00766
23 | CGTGGAACATGGACCGGTTTTCCCGGTAATCCGTATTTGTT (site CGTGGATCTAA) | 0.524
24 | CGTGGAACATGGACCGGTTTTCCCGGTAATCCGTATTTGTT (site CGTGGCACTAA) | 0.0304
25 | CGTGGAACATGGACCGGTTTTCCCGGTAATCCGTATTTGTT (site CGTGGGACTAA) | 0.0232

Row | Sequence | recombinant UMI read abundance (log10)
26 | CGTGGAACATGGACCGGTTTTCCCGGTAATCCGTATTTGTT (site CGTGGTACTAA) | 0
27 | CGTGGAACATGGACCGGTTTTCCCGGTAATCCGTATTTGTT (site CGTGTAACTAA) | 0
28 | CGTGGAACATGGACCGGTTTTCCCGGTAATCCGTATTTGTT (site CGTTGAACTAA) | 0
29 | CGTGGAACATGGACCGGTTTTCCCGGTAATCCGTATTTGTT (site CTTGGAACTAA) | 0.0161
30 | CGTGGAACATGGACCGGTTTTCCCGGTAATCCGTATTTGTT (site GGTGGAACTAA) | 0.0165
31 | CGTGGAACATGGACCGGTTTTCCCGGTAATCCGTATTTGTT (site TGTGGAACTAA) | 0.0144
32 | CGTGGACCATGGACCGGTTTTCCCGGTAATCCGTATTTGGG (site CGAGGACCTCC) | 0.0168
33 | CGTGGACCATGGACCGGTTTTCCCGGTAATCCGTATTTGGG (site CGCGGACCTCC) | 0.00423
34 | CGTGGACCATGGACCGGTTTTCCCGGTAATCCGTATTTGGG (site CGGGGACCTCC) | 0.028
35 | CGTGGACCATGGACCGGTTTTCCCGGTAATCCGTATTTGGG (site CGTGGACCTCC) | 0.0154
36 | CGTGGGACATGGACCGGTTTTCCCGGTAATCCGTATTTGTT (site CGTGGAACTAA) | 1.86
37 | CGTGGGACATGGACCGGTTTTCCCGGTAATCCGTATTTGTT (site CGTGGCACTAA) | 0.0102
38 | CGTGGGACATGGACCGGTTTTCCCGGTAATCCGTATTTGTT (site CGTGGGACTAA) | 1.79
39 | CGTGGGACATGGACCGGTTTTCCCGGTAATCCGTATTTGTT (site CGTGGTACTAA) | 0
40 | CGTGGTTCATGGACCGGTTTTCCCGGTAATCCGTATTTGCG (site CGTGGTTCTCG) | 2.1
41 | CGTGTAACATGGACCGGTTTTCCCGGTAATCCGTATTTGCG (site CGTGTAACTCG) | 1.78
42 | CGTGTCACATGGACCGGTTTTCCCGGTAATCCGTATTTGGT (site CGTGTCACTAC) | 1.31
43 | CGTGTCGCATGGACCGGTTTTCCCGGTAATCCGTATTTGTG (site CGTGTCGCTCA) | 0.701
44 | CGTGTGTCATGGACCGGTTTTCCCGGTAATCCGTATTTGGA (site CGTGTGTCTTC) | 1.86
45 | CGTTAGACATGGACCGGTTTTCCCGGTAATCCGTATTTGCG (site CGTTAGACTCA) | 0.0494
46 | CGTTAGACATGGACCGGTTTTCCCGGTAATCCGTATTTGCG (site CGTTAGACTCC) | 0.0162
47 | CGTTAGACATGGACCGGTTTTCCCGGTAATCCGTATTTGCG (site CGTTAGACTCG) | 1.85
48 | CGTTAGACATGGACCGGTTTTCCCGGTAATCCGTATTTGCG (site CGTTAGACTCT) | 0.911
49 | CGTTAGCCATGGACCGGTTTTCCCGGTAATCCGTATTTGAG (site CGTTAGACTCT) | 0.00766
50 | CGTTAGCCATGGACCGGTTTTCCCGGTAATCCGTATTTGAG (site CGTTAGCCTCT) | 0.184

Row | Sequence | recombinant UMI read abundance (log10)
51 | CGTTAGCCATGGACCGGTTTTCCCGGTAATCCGTATTTGAG (site CGTTAGGCTCT) | 0.00758
52 | CGTTAGCCATGGACCGGTTTTCCCGGTAATCCGTATTTGAG (site CGTTAGTCTCT) | 0.737
53 | CGTTATACATGGACCGGTTTTCCCGGTAATCCGTATTTGAG (site CGTTAAACTCT) | 0
54 | CGTTATACATGGACCGGTTTTCCCGGTAATCCGTATTTGAG (site CGTTACACTCT) | 0.0313
55 | CGTTATACATGGACCGGTTTTCCCGGTAATCCGTATTTGAG (site CGTTAGACTCT) | 0.0101
56 | CGTTATACATGGACCGGTTTTCCCGGTAATCCGTATTTGAG (site CGTTATACTCT) | 1.25
57 | CGTTATCCATGGACCGGTTTTCCCGGTAATCCGTATTTGTC (site CGTTATCCTGA) | 1.46
58 | CGTTCATCATGGACCGGTTTTCCCGGTAATCCGTATTTGCC (site CGATCATCTAG) | 0
59 | CGTTCATCATGGACCGGTTTTCCCGGTAATCCGTATTTGCC (site CGTTCATCTGG) | 2.32
60 | CGTTCATCATGGACCGGTTTTCCCGGTAATCCGTATTTGTG (site CGTTCATCTCA) | 0.00491
61 | CGTTCCCCATGGACCGGTTTTCCCGGTAATCCGTATTTGTG (site CGTTCCCCTCA) | 0.365
62 | CGTTCGACATGGACCGGTTTTCCCGGTAATCCGTATTTGTT (site CGATCGACTAA) | 0.0104
63 | CGTTCGACATGGACCGGTTTTCCCGGTAATCCGTATTTGTT (site CGCTCGACTAA) | 0.0144
64 | CGTTCGACATGGACCGGTTTTCCCGGTAATCCGTATTTGTT (site CGGTCGACTAA) | 0.0244
65 | CGTTCGACATGGACCGGTTTTCCCGGTAATCCGTATTTGTT (site CGTTCGACTAA) | 0.0172
66 | CGTTCGTCATGGACCGGTTTTCCCGGTAATCCGTATTTGCT (site CGATCATCTAG) | 0
67 | CGTTCGTCATGGACCGGTTTTCCCGGTAATCCGTATTTGCT (site CGTTCGTCTAG) | 1.95
68 | CGTTGAACATGGACCGGTTTTCCCGGTAATCCGTATTTGTT (site CGTAGAACTAA) | 0.00276
69 | CGTTGAACATGGACCGGTTTTCCCGGTAATCCGTATTTGTT (site CGTCGAACTAA) | 0.0175
70 | CGTTGAACATGGACCGGTTTTCCCGGTAATCCGTATTTGTT (site CGTGGAACTAA) | 0.0247
71 | CGTTGAACATGGACCGGTTTTCCCGGTAATCCGTATTTGTT (site CGTTGAACTAA) | 0.623
72 | CGTTGTGCATGGACCGGTTTTCCCGGTAATCCGTATTTGAG (site CGTTGTGCTCT) | 1.77
73 | CGTTTGGCATGGACCGGTTTTCCCGGTAATCCGTATTTGCC (site CGTTTGGCTAG) | 0
74 | CGTTTGGCATGGACCGGTTTTCCCGGTAATCCGTATTTGCC (site CGTTTGGCTCG) | 0.0176
75 | CGTTTGGCATGGACCGGTTTTCCCGGTAATCCGTATTTGCC (site CGTTTGGCTGG) | 0
